# Several values for one entry are separate records, joined by “and”; a condition that tells them apart may be missing. Equal entries are not always repeated.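 These data come from cells grown in 96-well plates and exposed to compound for 48 hours at five concentrations. Abbreviation: GI50, concentration required for 50% inhibition of growth. TGI marks complete inhibition of growth.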
# Key:
# Assay in all cases: growth of human tumour cells (NCI), 48 h
# [1] = test system: OVCAR-8 ovarian
# [2] = test system: OVCAR-4 ovarian
# [3] = test system: SK-MEL-2 melanoma
# [4] = test system: NCI-H460 lung
# [5] = test system: NCI-H23 lung
# [6] = test system: HT29 colon
# [7] = test system: OVCAR-5 ovarian
# [8] = test system: IGROV1 ovarian
# [9] = test system: SF-295 CNS
# [10] = test system: SNB-19 CNS
SMILES,GI50 [1],TGI [1],GI50 [2],TGI [2],GI50 [3],TGI [3],GI50 [4],TGI [4],GI50 [5],TGI [5],GI50 [6],TGI [6],GI50 [7],TGI [7],GI50 [8],TGI [8],GI50 [9],TGI [9],GI50 [10],TGI [10]
COc1ccc(/C=C\c2cc(OC)c(OC)c(OC)c2)cc1NC(=O)[C@@H](N)CO,32.8 nM,> 100 µM,0.0355 µM,> 100 µM,19.8 nM,> 100 µM,32.1 nM,> 100 µM,33 nM,> 100 µM,< 17.3 nM,20.5 µM,< 0.023 µM,> 100 µM,27.3 nM,> 92.6 µM,< 10 nM,> 100 µM,43.3 nM,> 100 µM
O=C1c2cccnc2-c2nc(-c3ccccn3)cc3c2c1nc1ccccc13,150 nM,0.402 µM,0.0699 µM,0.26 µM,1060 nM,2.52 µM,61.6 nM,0.268 µM,374 nM,1.78 µM,850 nM,2.95 µM,0.745 µM,3.43 µM,99 nM,0.305 µM,423 nM,1.7 µM,1130 nM,2.65 µM
COc1ccc(/C=C/C(=O)/C=C(/C=C/c2ccc(OC)c(OC)c2)OB(F)F)cc1OC,417 nM,> 100 µM,1.86 µM,> 100 µM,1810 nM,4.39 µM,1680 nM,4.58 µM,1330 nM,4.17 µM,1030 nM,4.95 µM,2.26 µM,5.86 µM,486 nM,4.41 µM,1890 nM,4.87 µM,1630 nM,5.73 µM
CN(C)CCN1N=Nc2cccc3cccc1c23,,> 100 µM,,> 100 µM,,> 100 µM,,> 100 µM,,> 100 µM,,> 100 µM,,> 100 µM,,> 100 µM,,> 100 µM,,> 100 µM
O=C(CCl)Nc1ccccc1SCc1cc(Cl)cc2c1OCOC2,13000 nM,30.2 µM,3.14 µM,12.5 µM,11400 nM,24.8 µM,18400 nM,38.1 µM,9580 nM,31.2 µM,4270 nM,14.5 µM,13.5 µM,27.7 µM,2270 nM,5.62 µM,20000 nM,41.9 µM,14100 nM,28.9 µM
COC(=O)c1ccc(-c2nc3cc(F)c(F)cc3nc2C#N)cc1,4650 nM,13 µM,4.71 µM,32.3 µM,14900 nM,46.7 µM,9860 nM,19.2 µM,9120 nM,17 µM,11100 nM,35.6 µM,12.1 µM,32.6 µM,9620 nM,20.4 µM,7260 nM,15.5 µM,9350 nM,17 µM
Clc1ccc(N2COOC3(OOC2)C2CC4CC(C2)CC3C4)cc1,14400 nM,> 100 µM,5.52 µM,> 59.5 µM,10500 nM,> 88.3 µM,1570 nM,9.27 µM,11500 nM,31.6 µM,9930 nM,> 60.1 µM,8.34 µM,> 74.8 µM,1810 nM,6.22 µM,2990 nM,17.9 µM,> 40000 nM,> 100 µM
O=C1CC2(CCCc3sccc32)C(=O)N1 (stereo unspecified),,> 100 µM,,> 100 µM,,> 100 µM,,> 100 µM,,> 100 µM,,> 100 µM,,> 100 µM,,> 100 µM,,> 100 µM,,> 100 µM
Cc1c(C(=O)CCl)c(=O)n(-c2ccccc2)n1C,3850 nM,28.3 µM,3.68 µM,14.9 µM,3990 nM,14.5 µM,7940 nM,32.1 µM,5170 nM,21.1 µM,3250 nM,12.9 µM,13.3 µM,27.1 µM,2190 nM,6.92 µM,10900 nM,44.3 µM,17100 nM,51.1 µM
COc1ccc(/C=C(\C#N)n2nnc3cc(Cl)ccc32)cc1,751 nM,> 100 µM,2.51 µM,> 100 µM,483 nM,> 47.6 µM,2830 nM,> 56.6 µM,1670 nM,> 33.6 µM,334 nM,> 100 µM,1.4 µM,6.44 µM,606 nM,> 37.9 µM,1180 nM,6.43 µM,1120 nM,> 41.4 µM
c1ccc(Oc2c3ccccc3nc3ccccc23)cc1,6220 nM,24.8 µM,4.33 µM,21.2 µM,3950 nM,17.6 µM,3290 nM,10.3 µM,3710 nM,14.3 µM,480 nM,2.83 µM,3.7 µM,13.7 µM,4310 nM,15.8 µM,5030 nM,> 100 µM,5350 nM,18 µM
Cc1c2cc[n+](C)cc2c(C)c2c1[nH]c1ccc(OC(C)C)cc12,649 nM and 1610 nM,26 µM and 18.9 µM,,17.4 µM and > 45.2 µM,,3.94 µM and 8.68 µM,,11.8 µM and 13.6 µM,,5.08 µM and 7.09 µM,,18.5 µM and 24.4 µM,,> 100 µM and 67.3 µM,,22.3 µM and 29.5 µM,231 nM and 1700 nM,,776 nM and 1910 nM,5.6 µM and 14.3 µM
CC1/C=C/C=C/CC/C=C/C=C/C=C/C=C/C(OC2OC(C)C(O)C(N)C2O)CC2OC(CC(O)C(O)CCC(O)CC(O)CC(O)CC(=O)OC(C)C(C)C1O)CC(O)C2C(=O)O (stereo unspecified),33.3 µg/mL,47 µM and 74.6 µg/mL,23.9 µg/mL,29.4 µM and 52.5 µg/mL,31.8 µg/mL,92.4 µM and 94.1 µg/mL,30.4 µg/mL,39.7 µM and 87.7 µg/mL,25.7 µg/mL,35.6 µM and 50.3 µg/mL,37.2 µg/mL,32.8 µM and 84.8 µg/mL,49.5 µg/mL,35.8 µM and 135 µg/mL,23.4 µg/mL,32.2 µM and 52.1 µg/mL,46.2 µg/mL,45.7 µM and 108 µg/mL,94.5 µg/mL,34 µM and 150 µg/mL
CCCCCCC(O)C/C=C/CCCCCC/C(C(=O)OC)=C(/O)C(=O)OCC (stereo unspecified),,> 100 µM,,> 100 µM,,> 100 µM,,> 100 µM,,> 100 µM,,> 100 µM,,> 100 µM,,> 100 µM,,> 100 µM,,> 100 µM
C[C@@H](Oc1cc(-c2cnn(C3CCNCC3)c2)cnc1N)c1c(Cl)ccc(F)c1Cl,2860 nM,> 10 µM,,> 10 µM,1820 nM,4.54 µM,662 nM,9.32 µM,930 nM,> 10 µM,437 nM,2.31 µM,1.14 µM,> 10 µM,2170 nM,> 10 µM,276 nM,> 10 µM,2240 nM,> 10 µM
O=C1NC(=O)C2=C1CCC2O (stereo unspecified),,> 100 µM,,> 100 µM,,> 100 µM,,> 100 µM,,> 100 µM,,> 100 µM,,> 100 µM,,> 100 µM,,> 100 µM,,> 100 µM

# Source: PubChem BioAssay (NCI)
